Like-named read-outs stand apart in the source and are kept apart here.
Target: human GABA A receptor α5β3γ2 (Homo sapiens (Human), UniProt P18507+P31644)
Experiment: [3H]flumazenil competition binding assay, human GABA A α5β3γ2 receptors expressed in HEK293 cells
Summary of the method: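 Competition for [3H]flumazenil binding on membranes of HEK293 cells transiently transfected with human α5β3γ2 receptors, in Krebs-tris buffer pH 7.5.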

[1] = human receptor, displacement of [3H]flumazenil (0.5 nM), means of two determinations, read-out: hKi GABAAa5

Row | Compound | Ki [1] [nM] | Ki [nM]
1 | CCNC(=O)CN1CCCC(NC(=O)c2ccc(OCc3c(-c4ccccc4)noc3C)nc2)C1 (stereo not drawn) [Example 42, N-(1-Ethylcarbamoylmethyl-piperidin-3-yl)-6-(5-methyl-3-phenyl-isoxazol-4-ylmethoxy)-nicotinamide] | 13.7 | 
2 | Cc1onc(-c2cccc(F)c2)c1COc1ccc(C(=O)NCC(F)(F)F)cn1 [Example 89, 6-[3-(3-Fluoro-phenyl)-5-methyl-isoxazol-4-ylmethoxy]-N-(2,2,2-trifluoro-ethyl)-nicotinamide] | 3 | 
3 | Cc1onc(-c2ccc(F)c(F)c2)c1COc1ccc(C(=O)NCC(C)(C)CO)cn1 [Example 268, 6-[3-(3,4-Difluoro-phenyl)-5-methyl-isoxazol-4-ylmethoxy]-N-(3-hydroxy-2,2-dimethyl-propyl)-nicotinamide] | 3.3 | 
4 | Cc1onc(-c2ccc(F)cn2)c1COc1ccc(C(=O)O)cn1 [Example 287, 6-[3-(5-Fluoro-pyridin-2-yl)-5-methyl-isoxazol-4-ylmethoxy]-nicotinic acid] | 19.2 | 
5 | CC(=O)NCCNC(=O)c1ccc(OCc2c(-c3ccccc3)noc2C)nc1 [Example 205, N-(2-Acetylamino-ethyl)-6-(5-methyl-3-phenyl-isoxazol-4-ylmethoxy)-nicotinamide] | 4 | 
6 | Cc1onc(-c2ccccc2)c1COc1ccc(C(=O)N2CCCCC2)cn1 [Example 51, [6-(5-Methyl-3-phenyl-isoxazol-4-ylmethoxy)-pyridin-3-yl]-piperidin-1-yl-methanone] | 50.8 | 
7 | Cc1onc(-c2ccncn2)c1COc1ccc(C(=O)NC2CC2)cn1 [Example 314, N-Cyclopropyl-6-(5-methyl-3-pyrimidin-4-yl-isoxazol-4-ylmethoxy)-nicotinamide] | 5.6 | 
8 | Cc1onc(-c2ccccc2)c1COc1ccc(C(=O)N[C@H]2CCCC[C@@H]2O)cn1 [Example 198, N-((1S,2S)-2-Hydroxy-cyclohexyl)-6-(5-methyl-3-phenyl-isoxazol-4-ylmethoxy)-nicotinamide] | 6.5 | 
9 | Cc1onc(-c2cccnc2)c1COc1ccc(C(=O)NC2CCOCC2)cn1 [Example 159, 6-(5-Methyl-3-pyridin-3-yl-isoxazol-4-ylmethoxy)-N-(tetrahydro-pyran-4-yl)-nicotinamide] | 27.9 | 
10 | Cc1onc(-c2ccccc2F)c1COc1ccc(C(=O)NC2CCOCC2)cn1 [Example 87, 6-[3-(2-Fluoro-phenyl)-5-methyl-isoxazol-4-ylmethoxy]-N-(tetrahydro-pyran-4-yl)-nicotinamide] | 4.6 | 
11 | Cc1onc(-c2ccc(F)cn2)c1COc1ccc(C(=O)NCC(F)(F)F)cn1 [Example 294] | 0.3 | 
12 | Cc1onc(-c2ccccc2)c1COc1ccc(C(=O)NC2CCCC2)cn1 [Example 29, N-Cyclopentyl-6-(5-methyl-3-phenyl-isoxazol-4-ylmethoxy)-nicotinamide] | 3.9 | 
13 | CNC(=O)c1ccc(OCc2c(-c3ccncn3)noc2C)nc1 [Example 318, N-Methyl-6-(5-methyl-3-pyrimidin-4-yl-isoxazol-4-ylmethoxy)-nicotinamide] | 4.8 | 
14 | Cc1onc(-c2ccccc2)c1COc1ccc(C(=O)NC2CCCN(CC(=O)NC3CCOCC3)C2)cn1 (stereo not drawn) [Example 46, 6-(5-Methyl-3-phenyl-isoxazol-4-ylmethoxy)-N-{1-[(tetrahydro-pyran-4-ylcarbamoyl)-methyl]-piperidin-3-yl}-nicotinamide] | 13.1 | 
15 | CC(C)NC(=O)c1ccc(OCc2conc2-c2ccccn2)nc1 [Example 359, N-Isopropyl-6-(3-pyridin-2-yl-isoxazol-4-ylmethoxy)-nicotinamide] | 13.1 | 
16 | Cc1onc(-c2ccc(Cl)cc2)c1COc1ccc(C(=O)O)cn1 [Example 116, 6-[3-(4-Chloro-phenyl)-5-methyl-isoxazol-4-ylmethoxy]-nicotinic acid] | 22.3 | 
17 | Cc1onc(-c2ccccc2)c1COc1ccc(C(=O)NCCCCO)cn1 [Example 220, N-(4-Hydroxy-butyl)-6-(5-methyl-3-phenyl-isoxazol-4-ylmethoxy)-nicotinamide] | 2.6 | 
18 | Cc1onc(-c2ccccc2)c1COc1ccc(C(=O)NC2CCOCC2)cn1 [Example 31, 6-(5-Methyl-3-phenyl-isoxazol-4-ylmethoxy)-N-(tetrahydro-pyran-4-yl)-nicotinamide] | 2.1 | 
19 | Cc1onc(-c2ccccc2)c1COc1ccc(C(=O)n2ccc(=O)[nH]2)cn1 [Example 238, 1-[6-(5-Methyl-3-phenyl-isoxazol-4-ylmethoxy)-pyridine-3-carbonyl]-1,2-dihydro-pyrazol-3-one] | 34.9 | 
20 | Cc1onc(-c2ccccc2)c1COc1ccc(C(=O)N[C@@H]2CCCC[C@@H]2O)cn1 (single isomer, unassigned) [Example 203, N-((1R,2S)-2-Hydroxy-cyclohexyl)-6-(5-methyl-3-phenyl-isoxazol-4-ylmethoxy)-nicotinamide or N-((1S,2R)-2-Hydroxy-cyclohexyl)-6-(5-methyl-3-phenyl-isoxazol-4-ylmethoxy)-nicotinamide] | 4.8 | 

Row | Compound | Ki [1] [nM] | Ki [nM]
21 | Cc1onc(-c2ccccn2)c1COc1ccc(C(=O)NC2CCOCC2)cn1 [Example 272, 6-(5-Methyl-3-pyridin-2-yl-isoxazol-4-ylmethoxy)-N-(tetrahydro-pyran-4-yl)-nicotinamide] | 1.1 | 
22 | Cc1onc(-c2ccccc2)c1COc1ccc(C(=O)NC2CCN(C(C)C)CC2)cn1 [Example 36, N-(1-Isopropyl-piperidin-4-yl)-6-(5-methyl-3-phenyl-isoxazol-4-ylmethoxy)-nicotinamide] |  | 9.9
23 | Cc1onc(-c2ccccc2)c1COc1cc(C2=CCN(C)CC2)ccn1 [Example 57, 1-Methyl-2′-(5-methyl-3-phenyl-isoxazol-4-ylmethoxy)-1,2,3,6-tetrahydro-[4,4′]bipyridinyl] |  | 32.1
24 | Cc1onc(-c2ccccn2)c1COc1ccc(C(=O)NC(C)(C)CO)cn1 [Example 281, (2-Hydroxy-1,1-dimethyl-ethyl)-6-(5-methyl-3-pyridin-2-yl-isoxazol-4-ylmethoxy)-nicotinamide] | 4 | 
25 | Cc1nnc(-c2ccc(OCc3c(-c4ccccc4)noc3C)nc2)[nH]1 [Example 246, 2-(5-Methyl-3-phenyl-isoxazol-4-ylmethoxy)-5-(5-methyl-4H-[1,2,4]triazol-3-yl)-pyridine] | 1.1 | 
26 | Cc1onc(-c2ccccc2)c1COc1cc(C(F)(F)F)c(C(=O)O)cn1 [Example 61, 6-(5-Methyl-3-phenyl-isoxazol-4-ylmethoxy)-4-trifluoromethyl-nicotinic acid] | 18.4 | 
27 | O=C(NCC1CC1)c1ccc(OCc2c(-c3ccc(F)cc3)noc2C(F)(F)F)nc1 [Example 141, N-Cyclopropylmethyl-6-[3-(4-fluoro-phenyl)-5-trifluoromethyl-isoxazol-4-ylmethoxy]-nicotinamide] | 22.5 | 
28 | Cc1onc(-c2ccccc2)c1COc1ccc(C(=O)NC2CCCCC2)cn1 [Example 30, N-Cyclohexyl-6-(5-methyl-3-phenyl-isoxazol-4-ylmethoxy)-nicotinamide] | 13.1 | 
29 | C[C@H](NC(=O)c1ccc(OCc2conc2-c2ccc(Cl)cc2)nc1)C(F)(F)F [Example 357, 6-[3-(4-Chloro-phenyl)-isoxazol-4-ylmethoxy]-N—((S)-2,2,2-trifluoro-1-methyl-ethyl)-nicotinamide] | ~20 | 
30 | COC(=O)c1ccc(OCc2c(-c3cccnc3)noc2C)nc1 [Example 154, 6-(5-Methyl-3-pyridin-3-yl-isoxazol-4-ylmethoxy)-nicotinic acid methyl ester] | 53.2 | 
31 | Cc1onc(-c2ccccc2)c1COc1ccc(C(=O)N[C@@H](C)C(F)(F)F)cn1 [Example 235, 6-(5-Methyl-3-phenyl-isoxazol-4-ylmethoxy)-N—((S)-2,2,2-trifluoro-1-methyl-ethyl)-nicotinamide] | 1.9 | 
32 | Cc1onc(-c2ccccc2)c1COc1ccc(C(=O)N[C@H]2CCCC[C@H]2O)cn1 (single isomer, unassigned) [Example 204, N-((1S,2R)-2-Hydroxy-cyclohexyl)-6-(5-methyl-3-phenyl-isoxazol-4-ylmethoxy)-nicotinamide or N-((1R,2S)-2-Hydroxy-cyclohexyl)-6-(5-methyl-3-phenyl-isoxazol-4-ylmethoxy)-nicotinamide] | 4.4 | 
33 | Cc1onc(-c2ccc(F)c(F)c2)c1COc1ccc(C(=O)NCC(C)(C)O)cn1 [Example 269, 6-[3-(3,4-Difluoro-phenyl)-5-methyl-isoxazol-4-ylmethoxy]-N-(2-hydroxy-2-methyl-propyl)-nicotinamide] | 6.7 | 
34 | Cc1onc(-c2ccccc2)c1COc1cccc(C#N)n1 [Example 73, 6-(5-Methyl-3-phenyl-isoxazol-4-ylmethoxy)-pyridine-2-carbonitrile] | 20.9 | 
35 | C[C@@H](CO)NC(=O)c1ccc(OCc2conc2-c2ccc(F)cc2)nc1 [Example 327, 6-[3-(4-Fluoro-phenyl)-isoxazol-4-ylmethoxy]-N—((S)-2-hydroxy-1-methyl-ethyl)-nicotinamide] | 13.9 | 
36 | Cc1onc(-c2ccc(F)cn2)c1COc1ccc(C(=O)NC(C)(C)CO)cn1 [Example 291, 6-[3-(5-Fluoro-pyridin-2-yl)-5-methyl-isoxazol-4-ylmethoxy](2-hydroxy-1,1-dimethyl-ethyl)-nicotinamide] | 1.2 | 
37 | COC(=O)c1ccc(OCc2c(-c3ccc(Cl)cn3)noc2C)nc1 [Example 300, 6-[3-(5-Chloro-pyridin-2-yl)-5-methyl-isoxazol-4-ylmethoxy]-nicotinic acid methyl ester] | 1.6 | 
38 | Cc1onc(-c2ccccc2)c1COc1cc(C(F)(F)F)c(C(=O)NC2CCOCC2)cn1 [Example 63, 6-(5-Methyl-3-phenyl-isoxazol-4-ylmethoxy)-N-(tetrahydro-pyran-4-yl)-4-trifluoromethyl-nicotinamide] | 10.7 | 
39 | Cc1onc(-c2ccccc2)c1COc1ccc(C(=O)N[C@H](CO)CC(C)C)cn1 [Example 207, N—((S)-1-Hydroxymethyl-3-methyl-butyl)-6-(5-methyl-3-phenyl-isoxazol-4-ylmethoxy)-nicotinamide] | 10.9 | 
